Source: paper doi:10.1101/2023.07.29.547699, “Bacterial pathogens deliver water/solute-permeable channels as a virulence strategy” (bioRxiv, 2023)

Columns and labels:
[1] = biological target: T1, DspE (Erwinia amylovora, UniProt O54581); assay: two-electrode voltage clamp, Xenopus oocytes; type: cell-based
T1 construct: full-length untagged ORF in pGH19, cRNA-injected Xenopus laevis oocytes; printed UniProt entry is strain Ea321, strain of the oocyte ORF not restated

[2] = biological target: T1, DspE; assay: fluorescent dye uptake, Xenopus oocytes; type: cell-based; settings: permeation through channel; ND96 bath saline with fluorescein, 20 h
[3] = biological target: T2, AvrE (Pseudomonas syringae group genomosp. 3, UniProt Q887C9); assay: fluorescent dye uptake, Xenopus oocytes; type: cell-based; settings: permeation through channel; ND96 bath saline with fluorescein, 20 h
T2 construct: full-length untagged ORF in pGH19, cRNA-injected Xenopus laevis oocytes
T2 sequence (Q887C9 whole entry): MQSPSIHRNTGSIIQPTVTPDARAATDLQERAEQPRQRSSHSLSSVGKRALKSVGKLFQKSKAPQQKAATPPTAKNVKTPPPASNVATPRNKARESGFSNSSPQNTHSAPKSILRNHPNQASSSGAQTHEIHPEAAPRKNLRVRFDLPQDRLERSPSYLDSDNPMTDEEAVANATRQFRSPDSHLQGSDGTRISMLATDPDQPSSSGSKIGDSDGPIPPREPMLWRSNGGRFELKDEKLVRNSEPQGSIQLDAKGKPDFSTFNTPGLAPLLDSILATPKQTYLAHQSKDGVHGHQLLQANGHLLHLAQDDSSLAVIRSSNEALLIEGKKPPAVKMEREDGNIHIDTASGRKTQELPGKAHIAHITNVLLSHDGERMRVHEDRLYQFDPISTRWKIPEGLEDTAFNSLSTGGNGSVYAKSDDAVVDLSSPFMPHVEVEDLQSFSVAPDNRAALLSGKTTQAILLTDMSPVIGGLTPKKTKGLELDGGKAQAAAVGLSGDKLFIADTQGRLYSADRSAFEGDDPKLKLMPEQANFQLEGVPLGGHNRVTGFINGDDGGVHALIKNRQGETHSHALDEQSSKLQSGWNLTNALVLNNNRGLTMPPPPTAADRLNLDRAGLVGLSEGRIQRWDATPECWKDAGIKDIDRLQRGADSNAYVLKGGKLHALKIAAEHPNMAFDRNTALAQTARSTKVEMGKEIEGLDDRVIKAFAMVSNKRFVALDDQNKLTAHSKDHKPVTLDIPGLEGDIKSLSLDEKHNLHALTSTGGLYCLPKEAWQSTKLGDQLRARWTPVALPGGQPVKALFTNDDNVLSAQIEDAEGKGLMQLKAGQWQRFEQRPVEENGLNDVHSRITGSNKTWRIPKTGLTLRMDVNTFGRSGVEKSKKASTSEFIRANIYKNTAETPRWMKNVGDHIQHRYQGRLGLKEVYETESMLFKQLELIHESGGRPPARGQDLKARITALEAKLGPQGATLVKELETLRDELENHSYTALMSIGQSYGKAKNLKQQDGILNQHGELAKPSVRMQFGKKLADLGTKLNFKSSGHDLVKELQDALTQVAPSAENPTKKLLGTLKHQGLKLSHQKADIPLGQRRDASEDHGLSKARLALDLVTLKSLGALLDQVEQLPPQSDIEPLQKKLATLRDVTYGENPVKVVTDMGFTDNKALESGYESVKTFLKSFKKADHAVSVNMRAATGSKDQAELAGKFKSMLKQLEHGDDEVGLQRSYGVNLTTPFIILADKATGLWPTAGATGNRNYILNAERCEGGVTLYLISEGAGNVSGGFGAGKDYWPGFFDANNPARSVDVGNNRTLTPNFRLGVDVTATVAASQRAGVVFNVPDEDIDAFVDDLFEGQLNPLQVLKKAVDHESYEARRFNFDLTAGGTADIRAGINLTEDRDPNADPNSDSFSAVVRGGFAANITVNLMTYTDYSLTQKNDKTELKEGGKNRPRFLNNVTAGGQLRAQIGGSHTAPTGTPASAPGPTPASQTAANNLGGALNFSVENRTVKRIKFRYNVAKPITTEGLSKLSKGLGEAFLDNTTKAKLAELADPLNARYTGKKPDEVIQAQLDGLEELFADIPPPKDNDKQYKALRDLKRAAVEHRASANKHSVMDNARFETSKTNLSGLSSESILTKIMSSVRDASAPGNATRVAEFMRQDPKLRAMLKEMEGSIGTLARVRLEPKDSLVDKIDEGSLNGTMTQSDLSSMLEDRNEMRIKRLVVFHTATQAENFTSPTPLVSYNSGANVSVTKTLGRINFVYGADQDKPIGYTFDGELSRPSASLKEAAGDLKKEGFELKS

[4] = biological target: T3, DspE (MBP-DspE) (Erwinia amylovora, UniProt O54581); assay: liposome carboxyfluorescein release inhibition; type: biochemical; settings: 20 mM HEPES, 300 mM NaCl, pH 8.0; 0.05-0.15 μM DspE; soybean lipid liposomes; channel blocker
T3 construct: full-length, N-terminal MBP-His8-PPX-FLAG tag kept; E. coli BL21(DE3); reconstituted in soybean liposomes; printed UniProt entry is strain Ea321, cloned gene from Ea273

[5] = biological target: T2, AvrE; assay: two-electrode voltage clamp, Xenopus oocytes; type: cell-based; settings: 50 mV test pulse; ND96 saline, pH 7.5; inhibitor in bath saline

T1 sequence (O54581 whole entry): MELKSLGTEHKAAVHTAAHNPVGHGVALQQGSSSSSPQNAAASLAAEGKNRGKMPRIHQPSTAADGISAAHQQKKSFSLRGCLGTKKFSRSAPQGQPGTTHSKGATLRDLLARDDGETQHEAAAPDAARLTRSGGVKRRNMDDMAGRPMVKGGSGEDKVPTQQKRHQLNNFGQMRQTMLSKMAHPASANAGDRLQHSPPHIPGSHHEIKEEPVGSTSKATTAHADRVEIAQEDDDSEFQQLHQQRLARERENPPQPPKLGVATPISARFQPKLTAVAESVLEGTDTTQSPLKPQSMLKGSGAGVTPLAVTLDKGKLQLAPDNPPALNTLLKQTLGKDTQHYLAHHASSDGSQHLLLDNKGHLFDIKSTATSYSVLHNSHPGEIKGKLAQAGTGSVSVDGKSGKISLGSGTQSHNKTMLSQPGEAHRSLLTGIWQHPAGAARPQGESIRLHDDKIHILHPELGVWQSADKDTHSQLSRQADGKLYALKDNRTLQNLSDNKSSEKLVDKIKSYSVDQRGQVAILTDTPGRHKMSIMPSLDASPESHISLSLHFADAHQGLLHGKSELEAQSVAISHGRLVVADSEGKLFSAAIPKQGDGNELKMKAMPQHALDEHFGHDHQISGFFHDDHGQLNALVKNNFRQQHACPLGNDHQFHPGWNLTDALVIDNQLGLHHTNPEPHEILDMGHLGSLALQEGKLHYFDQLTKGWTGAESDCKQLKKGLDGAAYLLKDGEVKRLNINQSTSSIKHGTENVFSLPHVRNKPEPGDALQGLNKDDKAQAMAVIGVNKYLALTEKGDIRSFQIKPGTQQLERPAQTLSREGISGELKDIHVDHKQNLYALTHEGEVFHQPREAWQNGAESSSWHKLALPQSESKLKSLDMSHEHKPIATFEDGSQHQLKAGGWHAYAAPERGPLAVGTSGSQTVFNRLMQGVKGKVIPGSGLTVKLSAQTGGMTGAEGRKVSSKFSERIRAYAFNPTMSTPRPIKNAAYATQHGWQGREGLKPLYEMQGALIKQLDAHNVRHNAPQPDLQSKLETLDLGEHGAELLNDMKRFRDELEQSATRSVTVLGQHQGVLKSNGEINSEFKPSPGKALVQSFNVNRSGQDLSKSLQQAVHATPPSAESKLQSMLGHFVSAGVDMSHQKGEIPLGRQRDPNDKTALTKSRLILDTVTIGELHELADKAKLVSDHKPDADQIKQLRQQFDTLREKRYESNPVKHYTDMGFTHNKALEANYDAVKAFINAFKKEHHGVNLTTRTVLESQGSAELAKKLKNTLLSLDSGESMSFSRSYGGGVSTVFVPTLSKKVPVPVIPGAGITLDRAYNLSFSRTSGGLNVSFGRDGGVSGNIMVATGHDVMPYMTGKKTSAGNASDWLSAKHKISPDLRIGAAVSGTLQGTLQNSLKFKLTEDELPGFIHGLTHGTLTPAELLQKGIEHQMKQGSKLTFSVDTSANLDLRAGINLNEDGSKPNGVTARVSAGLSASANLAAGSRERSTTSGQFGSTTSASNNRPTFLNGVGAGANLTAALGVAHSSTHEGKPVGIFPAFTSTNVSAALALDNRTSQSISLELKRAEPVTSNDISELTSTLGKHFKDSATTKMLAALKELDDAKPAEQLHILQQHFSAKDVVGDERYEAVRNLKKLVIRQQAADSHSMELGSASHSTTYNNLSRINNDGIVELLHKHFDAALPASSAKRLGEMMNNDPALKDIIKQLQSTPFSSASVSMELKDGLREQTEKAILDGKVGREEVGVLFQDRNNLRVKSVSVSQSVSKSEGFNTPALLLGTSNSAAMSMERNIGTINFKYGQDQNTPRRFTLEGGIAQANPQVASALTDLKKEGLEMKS

Molecule: NCCNC(=O)CCN(CCC(=O)NCCN)CCN(CCC(=O)NCCN)CCC(=O)NCCN [G0, PAMAM G0]
- inhibition at 10000 µM ([1]; read-out: % inhibition at 10 mM): 68%

Molecule: O=C1OC2(c3ccc(O)cc3Oc3cc(O)ccc32)c2ccccc21 [fluorescein]
- fluorescent dye uptake, Xenopus oocytes [2]: fluorescein entered oocytes expressing DspE or AvrE, whereas eGFP could not
- fluorescent dye uptake, Xenopus oocytes [3]: fluorescein entered oocytes expressing DspE or AvrE, whereas eGFP could not

Molecule: PAMAM G1
- IC50 [4]: 31 µM
- % inhibition at 10 mM [5]: 93%
- % inhibition at 10 mM ([1]; 50 mV test pulse, ND96 saline, pH 7.5, inhibitor in bath saline): 71%
